Test results reported in patent publication EP4778933A1 (Chengdu Hyperway Pharmaceuticals Co., Ltd., priority 2023, dated 2025).
Read-outs that look alike come from different tables or passages of the source. Values belong to the compound of their own block, whether it stands above or below them.

Columns and labels:
[1] = In vivo pharmacokinetic test in mice; settings: single dose 30 mg/kg, plasma
Experimental: Each test compound was administered orally once to female BALB/c mice for pharmacokinetic study. The test compounds were prepared on the day of administration. The oral administration solvent: 50 mM sodium citrate (pH 5.0) + 10% captisol. The oral administration was conducted in a dose of 30 mg/kg. The animals were fasted for 10-14 h before oral administration, and the feeding was resumed 4 h after administration. Pharmacokinetic samples were collected through the orbit. The collection time points were: 15 min, 30 min, 1 h, 2 h, 4 h, 6 h, 8 h and 24 h after administration. Three whole blood samples were collected at each time point, with a collection volume of about 0.2 mL, and anticoagulated with sodium heparin. After blood samples were collected, they were immediately placed on ice and centrifuged within 1 h to isolate plasma (centrifugation conditions: 8000 rpm, 1 min, 2-8°C). The collected plasma was stored in a -20°C refrigerator before analysis. The concentrations of compounds in the plasma samples were determined using an LC-MS/MS analysis method.

[2] = tested on: KRAS G12D-mediated ERK phosphorylation; test: Inhibition of KRAS G12D-mediated ERK phosphorylation in AGS cells (in-cell pERK/GAPDH immunofluorescence); format: cell-based
Experimental: (§1) Day 1: AGS cells, SW480 cells, NCI H358 cells, HCT116 cells, and KP2 cells were seeded into 384-well cell culture plates and cultured overnight in a 37°C, 5% CO2 incubator.
(§2) Day 2: The compounds were added to the plates using Echo550 and incubated for 3 h in a 37°C, 5% CO2 incubator. Then, cells fixed with paraformaldehyde, permeated with methanol and blocked with a blocking solution were added. Finally, a mixed solution of primary antibodies (rabbit anti pERK, mouse anti GAPDH) was added, and the mixture was incubated overnight at 4°C.
(§3) Day 3: The mixed solution of primary antibodies was discarded, and a mixed solution of secondary antibodies (goat anti rabbit 800 CW, goat anti mouse 680 RD) was added. The resulting mixture was incubated at room temperature in the dark. Finally, the cell culture plate was washed with PBST, and then inverted for 1 minute of centrifugation. The fluorescence signal values were read with Odyssey CLx.
(§4) ERK phosphorylation was calculated according to the following formula: [formula] • Negative control: DMSO • Positive control: 10 µM Reference • IC50 value was fitted and calculated by XLFit 5.0 using the parametric formula. • Y = Bottom+(Top-Bottom)/(1+10^((LogIC50-X)*HillSlope)) • X: log value of compound concentration. • Y: average value of relative expression of p-ERK between replicate wells.

[3] = tested on: KRAS G12V-mediated ERK phosphorylation; test: Inhibition of KRAS G12V-mediated ERK phosphorylation in SW480 cells; format: cell-based; settings: 3 h incubation, read-out: Inhibitory activity on ERK phosphorylation (IC50) SW480-G12V
Experimental: as §1, §2, §3, §4

[4] = female BALB/c mice, oral, 30 mg/kg
[5] = AGS cells, 3 h incubation, read-out: Inhibitory activity on ERK phosphorylation (IC50) AGS-G12D
[6] = Homo sapiens, AGS, 3 h, read-out: Inhibitory activity on ERK phosphorylation (IC50) AGS-G12D, AGS cells, 3 h incubation
[7] = Homo sapiens, AGS, 3 h, AGS cells, 3 h incubation, read-out: Inhibitory activity on ERK phosphorylation (IC50) AGS-G12D

- AUC [1, 4]: 9224 ng·h/mL
- Cmax ([1]; female, BALB/c, mouse, po, 30 mg/kg, read-out: Cmax): 3290 ng/mL
- IC50 [2, 5]: 4.2 nM
Structure (SMILES): CC1(O)COCCN(c2nc(OCC34CCCN3C(c3cc(F)c(F)c(F)c3)CC4)nc3c(F)c(-c4cccc5sc(N)c(C#N)c45)c(I)cc23)C1 (single isomer, unassigned) [Example 28, 2-amino-4-[6-iodo-8-fluoro-4-(6-hydroxy-6-methyl-1,4-oxazepan-4-yl)-2-({[3-(3,4,5-trifluorophenyl)-2,3,5,6,7,7a-hexahydro-1H-pyrrolizin-7a-yl]methyl}oxy)quinazolin-7-yl]benzo[b]thiophene-3-carbonitrile]

- AUC [1, 4]: 6017 ng·h/mL
- Cmax [1, 4]: 2148 ng/mL
- IC50 [2, 5]: 33 nM
Structure (SMILES): CC1(O)COCCN(c2nc(OCC34CCCN3C(c3cc(F)c(F)c(F)c3)CC4)nc3c(F)c(-c4cccc5sc(N)c(C#N)c45)c(Cl)cc23)C1 (single isomer, unassigned) [Example 18, 2-amino-4-[6-chloro-8-fluoro-4-(6-hydroxy-6-methyl-1,4-oxazepan-4-yl)-2-({[3-(3,4,5-trifluorophenyl)-2,3,5,6,7,7a-hexahydro-1H-pyrrolizin-7a-yl]methyl}oxy)quinazolin-7-yl]benzo[b]thiophene-3-carbonitrile]

- IC50 [2, 5]: 43 nM
Structure (SMILES): CC1(O)COCCN(c2nc(OCC34CCCN3C(c3cc(F)c(F)c(F)c3)CC4)nc3c(F)c(-c4cccc5sc(N)c(C#N)c45)c(Cl)cc23)C1 (single isomer, unassigned) [Example 22, 2-amino-4-[6-chloro-8-fluoro-4-(6-hydroxy-6-methyl-1,4-oxazepan-4-yl)-2-({[3-(3,4,5-trifluorophenyl)-2,3,5,6,7,7a-hexahydro-1H-pyrrolizin-7a-yl]methyl}oxy)quinazolin-7-yl]benzo[b]thiophene-3-carbonitrile]

- IC50 [2, 5]: 94 nM
Structure (SMILES): CC1(O)COCCN(c2nc(OCC34CCCN3C(c3cc(F)c(F)c(F)c3)CC4)nc3c(F)c(-c4cccc5sc(N)c(C#N)c45)c(I)cc23)C1 (single isomer, unassigned) [Example 30, 2-amino-4-[6-iodo-8-fluoro-4-(6-hydroxy-6-methyl-1,4-oxazepan-4-yl)-2-({[3-(3,4,5-trifluorophenyl)-2,3,5,6,7,7a-hexahydro-1H-pyrrolizin-7a-yl]methyl}oxy)quinazolin-7-yl]benzo[b]thiophene-3-carbonitrile]

More lines, now with the values behind:

Structure (SMILES): N#Cc1c(N)sc2c(F)ccc(-c3c(Cl)cc4c(N5CCOCC5)nc(OC[C@@]56CCCN5[C@H](c5cc(F)c(F)c(F)c5)CC6)nc4c3F)c12 (relative stereo) [Example 17]
- AUC ([1]; mouse, female BALB/c mice, oral, read-out: AUC): 3990 ng·h/mL
- Cmax ([1]; mouse, female BALB/c mice, oral, read-out: Cmax): 1490 ng/mL
- IC50 ([2]; Homo sapiens, AGS cells, 3 h incubation, read-out: Inhibitory activity on ERK phosphorylation (IC50) AGS-G12D): 41 nM

Structure (SMILES): CC1(O)COCCN(c2nc(OCC34CCCN3C(c3cc(F)c(F)c(F)c3)CC4)nc3c(F)c(-c4ccc(F)c5sc(N)c(C#N)c45)c(Cl)cc23)C1 (single isomer, unassigned) [Example 13, 2-amino-4-[6-chloro-8-fluoro-4-(6-hydroxy-6-methyl-1,4-oxazepan-4-yl)-2-({[3-(3,4,5-trifluorophenyl)-2,3,5,6,7,7a-hexahydro-1H-pyrrolizin-7a-yl]methyl}oxy)quinazolin-7-yl]-7-fluorobenzo[b]thiophene-3-carbonitrile]
- IC50 [3]: 16 nM

Structure (SMILES): N#Cc1c(N)sc2c(F)ccc(-c3c(Cl)cc4c(N5CCC6(CC5)CC(O)CO6)nc(OCC56CCCN5C(c5cc(F)c(F)c(F)c5)CC6)nc4c3F)c12 (racemic) [Example 14, 8-[7-(2-amino-7-fluorobenzo[b]thiophen-4-yl)-6-chloro-8-fluoro-2-({[3-(3,4,5-trifluorophenyl)-2,3,5,6,7,7a-hexahydro-1H-pyrrolizin-7a-yl]methyl}oxy)quinazolin-4-yl]-8-aza-1-oxaspiro[4.5]de c-3-ol]
- IC50 [2, 6]: 758 nM

Structure (SMILES): CC1=NOC2(CCCN(c3nc(OCC45CCCN4C(c4cc(F)c(F)c(F)c4)CC5)nc4c(F)c(-c5ccc(F)c6sc(N)c(C#N)c56)c(Cl)cc34)CC2)C1 (racemic) [Example 3, 2-amino-4-[6-chloro-8-fluoro-4-(3-methyl-2,8-diaza-1-oxaspiro[4.6]undec-2-en-8-yl)-2-({[3-(3,4,5-trifluorophenyl)-2,3,5,6,7,7a-hexahydro-1H-pyrrolizin-7a-yl]methyl}oxy)quinazolin-7-yl]-7-fl uorobenzo[b]thiophene-3-carbonitrile]
- IC50 [2, 7]: > 1000 nM

Structure (SMILES): CC1(O)COCCN(c2nc(OCC34CCCN3C(c3cc(F)c(F)c(F)c3)CC4)nc3c(F)c(-c4ccc(F)c5sc(N)c(C#N)c45)c(Cl)cc23)C1 (single isomer, unassigned) [Example 9, 2-amino-4-[6-chloro-8-fluoro-4-(6-hydroxy-6-methyl-1,4-oxazepan-4-yl)-2-({[3-(3,4,5-trifluorophenyl)-2,3,5,6,7,7a-hexahydro-1H-pyrrolizin-7a-yl]methyl}oxy)quinazolin-7-yl]-7-fluorobenzo[b]thiophene-3-carbonitrile]
- AUC [1, 4]: 5181 ng·h/mL
- Cmax [1, 4]: 1897 ng/mL
- IC50 [2, 5]: 27 nM

Structure (SMILES): CN(C)C(=O)C1CN(c2nc(OCC34CCCN3C(c3cc(F)c(F)c(F)c3)CC4)nc3c(F)c(-c4ccc(F)c5sc(N)c(C#N)c45)c(Cl)cc23)CCCO1 (racemic) [Example 16, 4-[7-(2-amino-3-cyano-7-fluorobenzo[b]thiophen-4-yl)-6-chloro-8-fluoro-2-({[3-(3,4,5-trifluorophenyl)-2,3,5,6,7,7a-hexahydro-1H-pyrrolizin-7a-yl]methyl}oxy)quinazolin-4-yl]-N,N-dimethyl-1,4-oxazepan-2-carboxamide]
- IC50 [2, 7]: 380 nM

Structure (SMILES): CC1(O)COCCN(c2nc(OCC34CCCN3C(c3cc(F)c(F)c(F)c3)CC4)nc3c(F)c(-c4cncc5sc(N)c(C#N)c45)c(Cl)cc23)C1 (single isomer, unassigned) [Example 37, 2-amino-4-[6-chloro-8-fluoro-4-(6-hydroxy-6-methyl-1,4-oxazepan-4-yl)-2-({[1-(3,4,5-trifluoropheny 1)octahydrocyclopenta[1,2-a][5]annulen-3a-yl]methyl}oxy)quinazolin-7-yl]thieno[2,3-c]pyridine-3-ca rbonitrile]
- IC50 [2, 6]: 193 nM

Structure (SMILES): CC1(O)COCCN(c2nc(OCC34CCCN3C(c3cc(F)c(F)c(F)c3)CC4)nc3c(F)c(-c4cccc5sc(N)c(C#N)c45)c(Br)cc23)C1 (single isomer, unassigned) [Example 25, 2-amino-4-[6-bromo-8-fluoro-4-(6-hydroxy-6-methyl-1,4-oxazepan-4-yl)-2-({[3-(3,4,5-trifluoropheny 1)-2,3,5,6,7,7a-hexahydro-1H-pyrrolizin-7a-yl]methyl}oxy)quinazolin-7-yl]benzo[b]thiophene-3-carb onitrile]
- IC50 ([2]; AGS cells, 3 h incubation): > 1000 nM

Structure (SMILES): CC1(O)CCCN(c2nc(OCC34CCCN3C(c3cc(F)c(F)c(F)c3)CC4)nc3c(F)c(-c4ccc(F)c5sc(N)c(C#N)c45)c(Cl)cc23)CC1 (racemic) [Example 6, 2-amino-4-[6-chloro-8-fluoro-4-(4-hydroxy-4-methylazepan-1-yl)-2-({[3-(3,4,5-trifluorophenyl)-2,3,5,6,7,7a-hexahydro-1H-pyrrolizin-7a-yl]methyl}oxy)quinazolin-7-yl]-7-fluorobenzo[b]thioph ene-3-carbonitrile]
- IC50 [2, 7]: 787 nM

Structure (SMILES): CC1(O)COCCN(c2nc(OCC34CCCN3C(c3cc(F)c(F)c(F)c3)CC4)nc3c(F)c(-c4ccc(F)c5sc(N)c(C#N)c45)c(Cl)cc23)C1 (single isomer, unassigned) [Example 10, 2-amino-4-[6-chloro-8-fluoro-4-(6-hydroxy-6-methyl-1,4-oxazepan-4-yl)-2-({[3-(3,4,5-trifluorophenyl)-2,3,5,6,7,7a-hexahydro-1H-pyrrolizin-7a-yl]methyl}oxy)quinazolin-7-yl]-7-fluorobenzo[b]thiophene-3-carbonitrile]
- IC50 [3]: > 1000 nM
